Reference: patent US20250163484A1, “Methods for Incorporating Azido Groups in Bacterial Capsular Polysaccharides” (PFIZER INC., priority 2022, published 2025)
Several values for one entry are separate records, joined by “and”; a condition that tells them apart may be missing. Identical values can stand only once. Like-named read-outs stand apart in the source and are kept apart here.

Experiments:
Assay type in all cases: cell-based, Streptococcus pneumoniae serotype 14
S. pneumoniae T14 [1] = test: Growth of S. pneumoniae T14 in fermentation with azido sugar (OD600); conditions: production media + 2AzGlc (10 mM)
Experimental: FIGS. 1A-1D. Screen for azido sugar incorporation into S. pneumoniae T14 capsule polysaccharide. Vessels (100 mL working volume) were inoculated with a 10-fold dilution of bacteria grown in seed expansion media supplemented with Galactose (30 g/L) (OD600=1.0-1.2) and incubated at 36° C. and 173 rpm with an air overlay of 1.5 SLPH. Media (production medium supplemented with Glucose (30 g/L) (black bars) or production medium supplemented with Galactose (30 g/L) (grey bars)) pH was controlled at 7.0. Bacteria were grown until the ΔOD600≥0 for >30 minutes, then lysed with 0.1% NLS for 30 minutes. Growth was measured offline using a spectrophotometer blanked with PBS at 600 nm. (FIG. 1A) azido incorporation into polysaccharide was then quantified via fluorescent labeling (FL) with normalization to refractive index (RI). MaxOD and End Of Fermentation time (EOF) are provided in (FIG. 1B) and (FIG. 1C), respectively. Polysaccharide was extracted using EtOH and CaCl2 and analyzed via SEC-RI for (FIG. 1D) polysaccharide titer. n=1-4, error bars=+/−StDev.
To identify azido sugars that could incorporate into S. pneumoniae T14 capsule, we grew S. pneumoniae T14 (serotype 14) in the production medium supplemented with various azido sugars (Table 3) supplied at 1 mM. We performed our screen using both production medium supplemented with Glucose (dextrose, 30 g/L) and production medium supplemented with Galactose (30 g/L).
(§1) We tested the impact of 2AzGlc concentration on S. pneumoniae T14 growth, polysaccharide production, and azido incorporation by growing the bacteria in production media (supplemented with Glucose (dextrose, 30 g/L)) with various concentrations of 2AzGlc (0, 1, 5, 10, 20, 40, and 60 mM).
To improve the incorporation of 2AzGlc into S. pneumoniae T14 capsule in production media (supplemented with Glucose (dextrose, 30 g/L)), we performed a 16-vessel DOE designed to test the impact of pH (6.33, 6.66, 7.00, and 7.33) and agitation (100, 200, and 300 rpm) on four response variables (MaxOD, Poly Titer, Poly Size, and FL/RI).

S. pneumoniae T14 [2] = test: as above; conditions: for MaxOD600 nm: production media + 2AzGlc (10 mM)
S. pneumoniae T14 [3] = conditions: for Polysacch. Titer: production medium + Galactose (30 g/L) + 2AzGlc (0.25 mM)
Experimental: FIGS. 1A-1D. Screen for azido sugar incorporation into S. pneumoniae T14 capsule polysaccharide. […] Bacteria were grown until the ΔOD600≥0 for >30 minutes, then lysed with 0.1% NLS for 30 minutes. Growth was measured offline using a spectrophotometer blanked with PBS at 600 nm. (FIG. 1A) azido incorporation into polysaccharide was then quantified via fluorescent labeling (FL) with normalization to refractive index (RI). MaxOD and End Of Fermentation time (EOF) are provided in (FIG. 1B) and (FIG. 1C), respectively. Polysaccharide was extracted using EtOH and CaCl2 and analyzed via SEC-RI for (FIG. 1D) polysaccharide titer. n=1-4, error bars=+/−StDev.
FIGS. 2A-2D Impact of 2AzGlcAc4 concentration on S. pneumoniae T14 growth and poly production in production medium supplemented with Galactose (30 g/L). […] (FIG. 2A) Growth was measured offline using a spectrophotometer blanked with PBS at 600 nm. At the end of fermentation, cultures were lysed with 0.1% NLS for 30 min. and polysaccharide was extracted via EtOH/CaCl2) precipitation. Polysaccharide titer (FIG. 2B) and size (FIG. 2C) were measured via SEC-RI and SEC-MALS, respectively. (FIG. 2D) azido incorporation was then quantified via fluorescent labeling (FL) and normalized to the refractive index (RI). n=3, error bars=+/−StDev.
FIGS. 3A-3E Impact of 2AzGlc concentration on S. pneumoniae T14 growth and polysaccharide production in production medium supplemented with Galactose (30 g/L). […] (FIG. 3A) Growth was measured offline using a spectrophotometer blanked with PBS at 600 nm. Cultures were lysed with 0.1% NLS for 30 min. and polysaccharide was extracted via EtOH/CaCl2) precipitation. Polysaccharide (FIG. 3B/FIG. 3C) titer and (FIG. 3D) size were measured via SEC-RI and SEC-MALS, respectively. (FIG. 3E) azido incorporation was then quantified via fluorescent labeling (FL) and normalized to the refractive index (RI). n=3, error bars=+/−StDev.
as §1

[4] = 2AzGlc titration, production media + Glucose (dextrose, 30 g/L)
[5] = 2AzGlc titration, production medium + Galactose (30 g/L)
[6] = azido feed DOE: Gal 30 g/L, initial 2AzGlc 0 mM, 2AzGlc feed stock 4 mM, pH 7.33, 300 rpm
[7] = azido feed DOE: Gal 30 g/L, initial 2AzGlc 0 mM, 2AzGlc feed stock 6.5 mM, pH 7.33, 300 rpm
[8] = azido feed DOE: Gal 30 g/L, initial 2AzGlc 0.1 mM, 2AzGlc feed stock 4 mM, pH 7.33, 300 rpm
[9] = azido feed DOE: Gal 30 g/L, initial 2AzGlc 0.1 mM, 2AzGlc feed stock 6.5 mM, pH 7.33, 300 rpm
[10] = azido feed DOE: Gal 40 g/L, initial 2AzGlc 0 mM, 2AzGlc feed stock 4 mM, pH 7.33, 300 rpm
[11] = azido feed DOE: Gal 40 g/L, initial 2AzGlc 0 mM, 2AzGlc feed stock 6.5 mM, pH 7.33, 300 rpm
[12] = azido feed DOE: Gal 40 g/L, initial 2AzGlc 0.1 mM, 2AzGlc feed stock 4 mM, pH 7.33, 300 rpm
[13] = azido feed DOE: Gal 40 g/L, initial 2AzGlc 0.1 mM, 2AzGlc feed stock 6.5 mM, pH 7.33, 300 rpm
[14] = azido sugar 20 mM without DMSO, production medium + Galactose (30 g/L)
[15] = initial galactose 40 g/L, initial 2AzGlc 0.1 mM, 4.0 mM 2AzGlc feed stock
[16] = screen, azido sugar 1 mM, only in production medium + Galactose
[17] = 2AzGlc titration 0-60 mM, production media + Glucose (dextrose, 30 g/L)

## [N-]=[N+]=N[C@@H](C=O)[C@@H](O)[C@H](O)[C@H](O)CO [2AzGlc, 2-Azido-2-deoxy-D-glucose]
S. pneumoniae T14 [1]; pH 6.33, agitation 100 rpm
  MaxOD600 nm: 12.1 and 13.6
S. pneumoniae T14 [1]; pH 6.33, agitation 300 rpm
  MaxOD600 nm: 10.8 and 10.7
S. pneumoniae T14 [1]; pH 7, agitation 100 rpm
  MaxOD600 nm: 8.8 and 7.8
S. pneumoniae T14 [1]; pH 7.33, agitation 100 rpm
  MaxOD600 nm: 8.9 and 9.6
S. pneumoniae T14 [1]; pH 7.33, agitation 200 rpm
  MaxOD600 nm: 8.5 and 8.3
S. pneumoniae T14 [2]; 2AzGlc addition, production medium + Galactose (30 g/L)
  rate of galactose consumption, of the batch model: ~70%
S. pneumoniae T14 [2]; [4]
  concentration at which negative effect on growth started: 20 mM
S. pneumoniae T14 [2]; [5]
  growth with increasing 2AzGlc concentrations: negatively impacted
S. pneumoniae T14 [2]; [6]
  MaxOD: 9.78 and 9.56
S. pneumoniae T14 [2]; [7]
  MaxOD: 8.74 and 8.32
S. pneumoniae T14 [2]; [8]
  MaxOD: 8.96 and 8.13
S. pneumoniae T14 [2]; [9]
  MaxOD: 5.76 and 5.65
S. pneumoniae T14 [2]; [10]
  MaxOD: 9.78 and 7.39
S. pneumoniae T14 [2]; [11]
  MaxOD: 8.44 and 6.64
S. pneumoniae T14 [2]; [12]
  MaxOD: 8.53 and 8.4
S. pneumoniae T14 [2]; [13]
  MaxOD: 4.53 and 3.71
S. pneumoniae T14 [2]; [14]
  growth: strongly inhibited
S. pneumoniae T14 [2]; fed-batch, initial galactose 5.0 g/L, 0.25 mM 2AzGlc, regardless of feed rate
  OD600 nm at which growth stopped: 3.0
S. pneumoniae T14 [2]; [15]
  maximum OD600 nm (average): 8.5
S. pneumoniae T14 [2]; pH 6.66, agitation 200 rpm
  MaxOD600 nm: 11.7
S. pneumoniae T14 [2]; pH 7, agitation 300 rpm
  MaxOD600 nm: 11.3 and 12.9
S. pneumoniae T14 [2]; pH 7.33, agitation 300 rpm
  MaxOD600 nm: 10.5 and 10.4
S. pneumoniae T14 [2]; production medium + Galactose (30 g/L) + 2AzGlc (0.25 mM), pH 6.33, agitation 100 rpm
  MaxOD: 6.98 and 6.76
S. pneumoniae T14 [2]; production medium + Galactose (30 g/L) + 2AzGlc (0.25 mM), pH 6.33, agitation 200 rpm
  MaxOD: 6.81
S. pneumoniae T14 [2]; production medium + Galactose (30 g/L) + 2AzGlc (0.25 mM), pH 6.33, agitation 300 rpm
  MaxOD: 6.05 and 5.89
S. pneumoniae T14 [2]; production medium + Galactose (30 g/L) + 2AzGlc (0.25 mM), pH 6.66, agitation 100 rpm
  MaxOD: 8.96
S. pneumoniae T14 [2]; production medium + Galactose (30 g/L) + 2AzGlc (0.25 mM), pH 6.66, agitation 300 rpm
  MaxOD: 9.1
S. pneumoniae T14 [2]; production medium + Galactose (30 g/L) + 2AzGlc (0.25 mM), pH 7, agitation 200 rpm
  MaxOD: 9.38
S. pneumoniae T14 [2]; production medium + Galactose (30 g/L) + 2AzGlc (0.25 mM), pH 7.33, agitation 100 rpm
  MaxOD: 8.43 and 8.23
S. pneumoniae T14 [2]; production medium + Galactose (30 g/L) + 2AzGlc (0.25 mM), pH 7.33, agitation 300 rpm
  MaxOD: 8.54 and 8.26
S. pneumoniae T14 [2]; [16]
  maximum OD: reduced
S. pneumoniae T14 [3]; [17]
  max size reduction: 78%
  max titer loss: 56%
S. pneumoniae T14 [3]; [4]
  concentration at which negative effect on poly production started: 1 mM
S. pneumoniae T14 [3]; [5]
  polysaccharide titers with increasing 2AzGlc concentrations: negatively impacted
S. pneumoniae T14 [3]; [6]
  Poly Titer: 0.2358 mg/mL and 0.22 mg/mL
S. pneumoniae T14 [3]; [7]
  Poly Titer: 0.1846 mg/mL and 0.189 mg/mL
S. pneumoniae T14 [3]; [8]
  Poly Titer: 0.1856 mg/mL and 0.1876 mg/mL
S. pneumoniae T14 [3]; [9]
  Poly Titer: 0.1266 mg/mL and 0.137 mg/mL
S. pneumoniae T14 [3]; [10]
  Poly Titer: 0.2204 mg/mL and 0.1796 mg/mL
S. pneumoniae T14 [3]; [11]
  Poly Titer: 0.1826 mg/mL and 0.1536 mg/mL
S. pneumoniae T14 [3]; [12]
  Poly Titer: 0.1882 mg/mL and 0.1748 mg/mL
S. pneumoniae T14 [3]; [13]
  Poly Titer: 0.1251 mg/mL and 0.1011 mg/mL
S. pneumoniae T14 [3]; [14]
  polysaccharide production: strongly inhibited
S. pneumoniae T14 [3]; [15]
  polysaccharide titer (average): 0.1815 mg/mL
S. pneumoniae T14 [3]; production media + 2AzGlc (10 mM), pH 6.33, agitation 100 rpm
  Poly Titer: 0.39 mg/mL
S. pneumoniae T14 [3]; production media + 2AzGlc (10 mM), pH 6.33, agitation 300 rpm
  Poly Titer: 0.44 mg/mL and 0.42 mg/mL
S. pneumoniae T14 [3]; production media + 2AzGlc (10 mM), pH 6.66, agitation 200 rpm
  Poly Titer: 0.52 mg/mL and 0.47 mg/mL
S. pneumoniae T14 [3]; production media + 2AzGlc (10 mM), pH 7, agitation 100 rpm
  Poly Titer: 0.40 mg/mL and 0.41 mg/mL
S. pneumoniae T14 [3]; production media + 2AzGlc (10 mM), pH 7, agitation 300 rpm
  Poly Titer: 0.43 mg/mL and 0.48 mg/mL
S. pneumoniae T14 [3]; production media + 2AzGlc (10 mM), pH 7.33, agitation 100 rpm
  Poly Titer: 0.36 mg/mL and 0.37 mg/mL
S. pneumoniae T14 [3]; production media + 2AzGlc (10 mM), pH 7.33, agitation 200 rpm
  Poly Titer: 0.41 mg/mL and 0.44 mg/mL
S. pneumoniae T14 [3]; production media + 2AzGlc (10 mM), pH 7.33, agitation 300 rpm
  Poly Titer: 0.41 mg/mL
S. pneumoniae T14 [3]; production media + Glucose (dextrose, 30 g/L), media pH 7, 2AzGlc 1 mM
  Titer: 0.63 mg/mL
S. pneumoniae T14 [3]; production media + Glucose (dextrose, 30 g/L), media pH 7, 2AzGlc 5 mM
  Titer: 0.53 mg/mL
S. pneumoniae T14 [3]; production media + Glucose (dextrose, 30 g/L), media pH 7, 2AzGlc 10 mM
  Titer: 0.43 mg/mL
S. pneumoniae T14 [3]; production media + Glucose (dextrose, 30 g/L), media pH 7, 2AzGlc 20 mM
  Titer: 0.32 mg/mL
S. pneumoniae T14 [3]; production media + Glucose (dextrose, 30 g/L), media pH 7.33, 2AzGlc 20 mM
  Titer: 0.3 mg/mL
S. pneumoniae T14 [3]; production media + Glucose (dextrose, 30 g/L), media pH 7.33, 2AzGlc 40 mM
  Titer: 0.28 mg/mL
S. pneumoniae T14 [3]; production media + Glucose (dextrose, 30 g/L), media pH 7.33, 2AzGlc 60 mM
  Titer: 0.28 mg/mL
S. pneumoniae T14 [3]; pH 6.33, agitation 100 rpm
  Polysacch. Titer: 0.195 mg/mL and 0.193 mg/mL
S. pneumoniae T14 [3]; pH 6.33, agitation 200 rpm
  Polysacch. Titer: 0.171 mg/mL
S. pneumoniae T14 [3]; pH 6.33, agitation 300 rpm
  Polysacch. Titer: 0.087 mg/mL and 0.149 mg/mL
S. pneumoniae T14 [3]; pH 6.66, agitation 100 rpm
  Polysacch. Titer: 0.247 mg/mL
S. pneumoniae T14 [3]; pH 6.66, agitation 300 rpm
  Polysacch. Titer: 0.227 mg/mL
S. pneumoniae T14 [3]; pH 7, agitation 200 rpm
  Polysacch. Titer: 0.269 mg/mL
S. pneumoniae T14 [3]; pH 7.33, agitation 100 rpm
  Polysacch. Titer: 0.235 mg/mL and 0.216 mg/mL
S. pneumoniae T14 [3]; pH 7.33, agitation 300 rpm
  Polysacch. Titer: 0.228 mg/mL and 0.211 mg/mL
S. pneumoniae T14 [3]; [16]
  polysaccharide titer: reduced
